ChEMBL document CHEMBL5465560, “Selectivity Literature for EUbOPEN Chemogenomic Library” (2024)

Columns and labels:
[1] = target: Calcium/calmodulin-dependent protein kinase type II subunit delta (Homo sapiens) (UniProt Q13557); conditions: at 10 µM
[2] = target: T1, Tyrosine-protein kinase ITK/TSK (Homo sapiens) (UniProt Q08881); conditions: at 10 µM
T1 sequence (whole entry): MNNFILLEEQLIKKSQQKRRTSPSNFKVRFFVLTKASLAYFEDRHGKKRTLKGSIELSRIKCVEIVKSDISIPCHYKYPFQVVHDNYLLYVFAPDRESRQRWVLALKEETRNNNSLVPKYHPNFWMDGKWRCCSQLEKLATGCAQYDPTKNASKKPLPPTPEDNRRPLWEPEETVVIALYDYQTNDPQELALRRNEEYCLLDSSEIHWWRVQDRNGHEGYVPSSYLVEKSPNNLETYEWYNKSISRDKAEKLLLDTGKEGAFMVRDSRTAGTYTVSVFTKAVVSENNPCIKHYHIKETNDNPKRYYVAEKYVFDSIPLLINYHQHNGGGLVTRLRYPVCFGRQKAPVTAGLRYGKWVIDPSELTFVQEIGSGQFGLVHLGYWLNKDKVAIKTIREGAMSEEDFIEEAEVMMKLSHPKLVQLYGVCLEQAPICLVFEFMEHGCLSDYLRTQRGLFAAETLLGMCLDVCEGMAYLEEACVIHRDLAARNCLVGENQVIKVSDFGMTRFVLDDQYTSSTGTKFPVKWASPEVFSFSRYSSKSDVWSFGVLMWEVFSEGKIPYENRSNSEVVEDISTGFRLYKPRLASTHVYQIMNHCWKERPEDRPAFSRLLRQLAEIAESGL

[3] = target: Homeodomain-interacting protein kinase 3 (Homo sapiens, UniProt Q9H422); assay: Selectivity interaction (KinomeScan (DiscoverX)) EUB0000618a HIPK3; conditions: at 10 µM
[4] = target: Serine/threonine-protein kinase SIK3 (Homo sapiens) (UniProt Q9Y2K2); assay: Selectivity interaction (KinomeScan (DiscoverX)) EUB0000618a SIK3; conditions: at 10 µM
[5] = target: Cyclin-dependent kinase 2/cyclin A (Homo sapiens) (UniProt P24941+P20248+P78396); assay: Selectivity interaction (SelectScreen profiling (Invitrogen)) EUB0000607a CDK2; format: protein-complex assay; conditions: at 2 µM
[6] = target: Interleukin-1 receptor-associated kinase 1 (Homo sapiens) (UniProt P51617); assay: Selectivity interaction (Upstate Kinase Profiler service (Millipore)) EUB0000056c IRAK1; conditions: at 1 µM
[7] = target: Cell division control protein 42 homolog (Homo sapiens) (UniProt P60953); assay: Selectivity interaction (Kinase panel (Invitrogen)) EUB0000639a CDC42; conditions: at 200 nM
[8] = target: T2, Bromodomain and PHD finger-containing protein 3 (Homo sapiens) (UniProt Q9ULD4); assay: Selectivity interaction (PWWP, WD40, and Tudor domain panel (DSLS measurements, literature)) EUB0000270b BRPF3
T2 sequence (whole entry): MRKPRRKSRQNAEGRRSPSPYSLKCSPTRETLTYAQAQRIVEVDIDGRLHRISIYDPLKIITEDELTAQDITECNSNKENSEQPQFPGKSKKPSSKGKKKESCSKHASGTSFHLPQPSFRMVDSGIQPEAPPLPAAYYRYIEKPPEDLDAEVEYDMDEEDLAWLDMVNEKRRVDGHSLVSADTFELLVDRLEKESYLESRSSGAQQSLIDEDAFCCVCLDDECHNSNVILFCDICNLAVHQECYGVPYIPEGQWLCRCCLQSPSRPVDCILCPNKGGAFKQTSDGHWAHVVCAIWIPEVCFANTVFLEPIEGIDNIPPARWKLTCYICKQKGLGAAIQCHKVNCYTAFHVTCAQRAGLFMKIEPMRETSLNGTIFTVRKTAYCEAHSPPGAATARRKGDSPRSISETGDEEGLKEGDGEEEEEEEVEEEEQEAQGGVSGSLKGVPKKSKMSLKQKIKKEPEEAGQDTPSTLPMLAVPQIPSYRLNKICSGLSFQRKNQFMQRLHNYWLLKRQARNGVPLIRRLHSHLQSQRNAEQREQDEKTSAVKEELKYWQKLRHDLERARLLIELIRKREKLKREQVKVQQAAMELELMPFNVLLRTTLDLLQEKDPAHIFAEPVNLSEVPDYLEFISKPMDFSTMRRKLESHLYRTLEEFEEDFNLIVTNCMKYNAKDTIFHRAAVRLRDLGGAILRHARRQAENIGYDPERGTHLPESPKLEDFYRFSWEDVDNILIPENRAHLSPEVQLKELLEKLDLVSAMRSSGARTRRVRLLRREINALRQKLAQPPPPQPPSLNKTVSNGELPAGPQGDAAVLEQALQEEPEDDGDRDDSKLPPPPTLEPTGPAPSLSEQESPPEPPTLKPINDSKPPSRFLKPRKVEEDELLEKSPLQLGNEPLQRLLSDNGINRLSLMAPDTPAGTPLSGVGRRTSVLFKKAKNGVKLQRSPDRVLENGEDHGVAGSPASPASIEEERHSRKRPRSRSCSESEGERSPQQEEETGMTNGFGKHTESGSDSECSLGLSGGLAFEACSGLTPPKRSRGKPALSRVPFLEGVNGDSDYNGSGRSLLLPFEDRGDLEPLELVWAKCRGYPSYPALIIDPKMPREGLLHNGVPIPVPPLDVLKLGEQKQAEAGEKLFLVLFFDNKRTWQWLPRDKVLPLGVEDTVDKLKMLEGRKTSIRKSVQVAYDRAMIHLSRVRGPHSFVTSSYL

[9] = target: Insulin-like growth factor 1 receptor (Homo sapiens, UniProt P08069); assay: Selectivity interaction (ProQinase) EUB0000171b IGF1R
[10] = target: RAC-beta serine/threonine-protein kinase (Homo sapiens) (UniProt P31751); assay: Selectivity interaction (KinomeScan (DiscoverX)) EUB0000092b AKT2; conditions: at 10 µM
[11] = target: T3, Dual specificity mitogen-activated protein kinase kinase 7 (Homo sapiens) (UniProt O14733); assay: Selectivity interaction (KinomeScan (DiscoverX)) EUB0000092b MAP2K7; conditions: at 10 µM
T3 sequence (whole entry): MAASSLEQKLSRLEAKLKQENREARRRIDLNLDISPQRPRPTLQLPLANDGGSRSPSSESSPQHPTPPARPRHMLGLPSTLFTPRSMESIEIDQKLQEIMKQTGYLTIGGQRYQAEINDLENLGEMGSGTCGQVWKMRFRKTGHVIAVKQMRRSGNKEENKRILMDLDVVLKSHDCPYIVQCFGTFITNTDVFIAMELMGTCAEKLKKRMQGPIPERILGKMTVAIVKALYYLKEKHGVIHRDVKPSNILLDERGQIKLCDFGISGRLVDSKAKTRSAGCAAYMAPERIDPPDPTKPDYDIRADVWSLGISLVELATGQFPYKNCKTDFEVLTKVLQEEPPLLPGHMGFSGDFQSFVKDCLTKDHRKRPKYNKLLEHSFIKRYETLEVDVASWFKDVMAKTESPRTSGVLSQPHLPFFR

[12] = target: Fibroblast growth factor receptor 3 (Homo sapiens, UniProt P22607); assay: Selectivity interaction (Kinase screening (Nanosyn)) EUB0000604a FGFR3

Chain of Insulin-like growth factor 1 receptor (P08069 31-736 limits assumed): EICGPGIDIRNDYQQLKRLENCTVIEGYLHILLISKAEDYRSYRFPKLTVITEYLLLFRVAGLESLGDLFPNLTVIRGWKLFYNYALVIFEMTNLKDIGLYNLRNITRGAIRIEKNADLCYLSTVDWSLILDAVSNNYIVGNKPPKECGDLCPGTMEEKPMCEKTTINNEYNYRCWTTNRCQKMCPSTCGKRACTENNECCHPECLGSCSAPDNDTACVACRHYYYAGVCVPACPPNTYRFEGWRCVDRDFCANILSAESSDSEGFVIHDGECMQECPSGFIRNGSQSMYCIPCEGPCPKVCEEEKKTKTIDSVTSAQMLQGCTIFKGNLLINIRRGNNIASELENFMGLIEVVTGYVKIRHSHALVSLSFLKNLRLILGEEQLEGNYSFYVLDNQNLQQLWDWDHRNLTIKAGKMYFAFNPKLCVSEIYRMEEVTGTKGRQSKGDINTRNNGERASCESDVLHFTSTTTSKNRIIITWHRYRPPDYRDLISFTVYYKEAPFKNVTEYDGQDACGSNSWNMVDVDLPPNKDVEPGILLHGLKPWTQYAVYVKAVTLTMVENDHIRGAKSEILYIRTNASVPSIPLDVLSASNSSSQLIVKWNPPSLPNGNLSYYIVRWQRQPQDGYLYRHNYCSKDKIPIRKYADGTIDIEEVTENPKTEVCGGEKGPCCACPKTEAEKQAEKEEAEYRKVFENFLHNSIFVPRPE
Chain of Insulin-like growth factor 1 receptor (P08069 741-1367 limits assumed): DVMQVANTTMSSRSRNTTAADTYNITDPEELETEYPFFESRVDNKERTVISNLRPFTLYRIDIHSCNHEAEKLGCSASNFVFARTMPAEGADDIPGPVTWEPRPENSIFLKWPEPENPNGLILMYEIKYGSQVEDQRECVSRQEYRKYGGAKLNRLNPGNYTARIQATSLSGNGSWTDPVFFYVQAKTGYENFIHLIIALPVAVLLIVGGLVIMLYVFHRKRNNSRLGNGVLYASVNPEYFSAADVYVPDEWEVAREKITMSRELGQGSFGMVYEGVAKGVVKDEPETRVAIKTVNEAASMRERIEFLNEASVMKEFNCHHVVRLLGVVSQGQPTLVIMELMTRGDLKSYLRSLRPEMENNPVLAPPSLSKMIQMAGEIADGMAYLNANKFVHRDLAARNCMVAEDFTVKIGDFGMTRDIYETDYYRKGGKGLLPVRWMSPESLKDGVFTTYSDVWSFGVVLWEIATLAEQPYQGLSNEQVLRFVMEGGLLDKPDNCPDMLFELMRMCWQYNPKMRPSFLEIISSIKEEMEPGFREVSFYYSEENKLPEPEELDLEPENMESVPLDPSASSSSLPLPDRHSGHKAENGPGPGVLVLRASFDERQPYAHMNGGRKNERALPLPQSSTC
Chain of Calcium/calmodulin-dependent protein kinase type II subunit delta (Homo sapiens) (Q13557 whole entry): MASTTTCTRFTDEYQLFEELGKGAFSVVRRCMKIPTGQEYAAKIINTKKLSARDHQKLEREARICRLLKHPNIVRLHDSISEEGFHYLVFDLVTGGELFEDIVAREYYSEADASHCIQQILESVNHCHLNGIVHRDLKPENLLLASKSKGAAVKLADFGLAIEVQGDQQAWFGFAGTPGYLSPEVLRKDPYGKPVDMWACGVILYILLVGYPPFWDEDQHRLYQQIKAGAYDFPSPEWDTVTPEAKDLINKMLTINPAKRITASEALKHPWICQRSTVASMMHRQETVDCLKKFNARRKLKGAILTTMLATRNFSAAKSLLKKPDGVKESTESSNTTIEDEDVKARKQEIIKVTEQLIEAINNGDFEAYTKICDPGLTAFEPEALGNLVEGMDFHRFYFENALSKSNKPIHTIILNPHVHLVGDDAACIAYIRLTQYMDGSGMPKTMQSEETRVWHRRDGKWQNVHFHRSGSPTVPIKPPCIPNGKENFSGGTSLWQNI
Chain of Homeodomain-interacting protein kinase 3 (Q9H422 whole entry, looked up): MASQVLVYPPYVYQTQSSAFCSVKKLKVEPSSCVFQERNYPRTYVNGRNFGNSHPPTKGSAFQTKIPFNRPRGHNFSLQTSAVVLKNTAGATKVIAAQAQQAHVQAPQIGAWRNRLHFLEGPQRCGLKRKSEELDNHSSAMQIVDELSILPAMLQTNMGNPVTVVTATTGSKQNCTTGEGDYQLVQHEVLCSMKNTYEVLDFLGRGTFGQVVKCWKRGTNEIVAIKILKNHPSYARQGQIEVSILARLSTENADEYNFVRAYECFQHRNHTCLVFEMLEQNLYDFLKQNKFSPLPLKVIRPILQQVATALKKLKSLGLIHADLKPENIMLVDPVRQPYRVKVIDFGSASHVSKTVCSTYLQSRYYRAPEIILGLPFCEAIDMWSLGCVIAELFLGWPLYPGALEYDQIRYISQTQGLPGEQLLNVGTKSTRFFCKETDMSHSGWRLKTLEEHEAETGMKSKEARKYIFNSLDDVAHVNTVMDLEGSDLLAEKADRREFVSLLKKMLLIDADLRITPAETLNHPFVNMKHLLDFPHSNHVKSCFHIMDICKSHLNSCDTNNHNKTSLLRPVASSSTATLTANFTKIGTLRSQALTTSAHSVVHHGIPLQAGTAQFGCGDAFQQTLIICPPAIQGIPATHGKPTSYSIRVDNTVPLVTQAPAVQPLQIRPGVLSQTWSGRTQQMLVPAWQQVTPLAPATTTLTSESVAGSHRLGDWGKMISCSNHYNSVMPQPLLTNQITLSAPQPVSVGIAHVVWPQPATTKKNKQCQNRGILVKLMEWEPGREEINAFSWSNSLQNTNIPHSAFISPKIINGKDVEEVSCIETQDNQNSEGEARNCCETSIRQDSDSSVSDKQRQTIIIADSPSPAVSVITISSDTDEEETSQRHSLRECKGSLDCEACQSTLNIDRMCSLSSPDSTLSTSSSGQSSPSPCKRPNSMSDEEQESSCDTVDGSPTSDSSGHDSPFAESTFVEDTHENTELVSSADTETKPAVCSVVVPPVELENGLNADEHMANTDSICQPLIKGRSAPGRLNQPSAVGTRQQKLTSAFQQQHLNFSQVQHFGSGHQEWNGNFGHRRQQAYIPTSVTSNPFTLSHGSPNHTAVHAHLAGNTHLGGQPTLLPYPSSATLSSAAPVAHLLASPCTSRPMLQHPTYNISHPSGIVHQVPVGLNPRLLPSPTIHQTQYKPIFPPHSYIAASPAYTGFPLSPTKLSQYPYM
Chain of Interleukin-1 receptor-associated kinase 1 (Homo sapiens) (P51617 whole entry, looked up): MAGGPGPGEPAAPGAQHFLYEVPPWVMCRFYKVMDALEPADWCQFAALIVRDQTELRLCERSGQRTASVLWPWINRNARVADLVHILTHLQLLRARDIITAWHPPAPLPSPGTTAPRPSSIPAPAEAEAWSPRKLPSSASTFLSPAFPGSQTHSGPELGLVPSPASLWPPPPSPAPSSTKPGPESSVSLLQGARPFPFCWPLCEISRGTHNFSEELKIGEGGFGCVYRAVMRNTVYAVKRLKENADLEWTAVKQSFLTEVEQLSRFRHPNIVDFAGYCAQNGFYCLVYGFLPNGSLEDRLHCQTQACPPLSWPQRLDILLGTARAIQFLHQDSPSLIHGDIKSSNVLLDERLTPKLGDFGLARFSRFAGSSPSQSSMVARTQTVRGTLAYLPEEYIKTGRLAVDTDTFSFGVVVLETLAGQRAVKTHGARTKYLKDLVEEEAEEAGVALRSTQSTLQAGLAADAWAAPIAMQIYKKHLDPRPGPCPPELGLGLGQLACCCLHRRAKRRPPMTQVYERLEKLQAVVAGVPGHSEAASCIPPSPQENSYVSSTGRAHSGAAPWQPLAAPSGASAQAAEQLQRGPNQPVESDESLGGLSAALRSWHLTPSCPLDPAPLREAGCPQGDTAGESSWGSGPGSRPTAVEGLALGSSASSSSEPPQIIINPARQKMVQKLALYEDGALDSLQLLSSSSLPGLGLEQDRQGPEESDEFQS
Chain of Serine/threonine-protein kinase SIK3 (Homo sapiens) (Q9Y2K2 whole entry, looked up): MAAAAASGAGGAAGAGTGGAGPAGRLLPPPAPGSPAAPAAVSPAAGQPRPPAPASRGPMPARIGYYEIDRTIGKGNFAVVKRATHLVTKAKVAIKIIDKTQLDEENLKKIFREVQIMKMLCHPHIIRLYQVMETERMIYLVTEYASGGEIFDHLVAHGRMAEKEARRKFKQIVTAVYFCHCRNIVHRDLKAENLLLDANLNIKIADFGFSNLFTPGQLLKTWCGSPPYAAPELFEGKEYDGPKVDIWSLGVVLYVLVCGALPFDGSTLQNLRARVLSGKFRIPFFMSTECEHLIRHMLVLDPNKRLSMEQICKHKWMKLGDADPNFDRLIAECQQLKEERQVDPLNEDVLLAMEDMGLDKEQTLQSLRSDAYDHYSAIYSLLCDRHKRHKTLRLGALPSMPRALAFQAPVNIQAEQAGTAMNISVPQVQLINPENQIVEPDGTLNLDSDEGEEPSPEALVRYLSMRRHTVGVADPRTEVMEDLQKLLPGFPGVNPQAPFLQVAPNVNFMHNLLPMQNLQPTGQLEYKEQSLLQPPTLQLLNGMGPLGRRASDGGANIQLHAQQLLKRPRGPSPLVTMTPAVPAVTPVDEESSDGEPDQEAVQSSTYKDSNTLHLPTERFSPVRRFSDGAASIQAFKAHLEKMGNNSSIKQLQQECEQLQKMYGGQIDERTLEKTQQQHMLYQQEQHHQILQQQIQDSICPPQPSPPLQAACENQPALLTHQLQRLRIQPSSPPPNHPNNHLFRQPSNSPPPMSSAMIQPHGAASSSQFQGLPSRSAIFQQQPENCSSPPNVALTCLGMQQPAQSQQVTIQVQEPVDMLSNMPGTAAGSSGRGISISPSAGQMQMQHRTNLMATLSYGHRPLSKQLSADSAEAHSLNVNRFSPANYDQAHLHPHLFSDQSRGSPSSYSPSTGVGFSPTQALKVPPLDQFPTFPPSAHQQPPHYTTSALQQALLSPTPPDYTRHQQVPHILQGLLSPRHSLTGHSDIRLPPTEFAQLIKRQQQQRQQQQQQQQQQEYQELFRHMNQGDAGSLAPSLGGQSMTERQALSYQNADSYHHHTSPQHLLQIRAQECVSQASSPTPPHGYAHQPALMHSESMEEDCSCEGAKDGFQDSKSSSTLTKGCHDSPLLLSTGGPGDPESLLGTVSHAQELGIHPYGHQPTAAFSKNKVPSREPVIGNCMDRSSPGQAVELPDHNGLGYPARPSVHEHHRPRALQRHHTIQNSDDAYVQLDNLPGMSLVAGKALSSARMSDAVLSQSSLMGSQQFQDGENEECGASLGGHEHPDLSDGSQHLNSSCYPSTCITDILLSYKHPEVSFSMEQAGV

CCN(CC)CCCCNc1ncc2cc(-c3cc(OC)cc(OC)c3)c(NC(=O)NC(C)(C)C)nc2n1 gave a % of control [1] of 100% and a % of control [2] of 100%.
For O[C@H]1CC[C@H](Nc2ncc3nc(Nc4c(F)cc(F)cc4F)n([C@H]4CCOC4)c3n2)CC1, the % of control [3] was 95% and the % of control [4] was 22%.
CNC(=O)Nc1ccc(-c2nc(N3CC4CCC(C3)O4)c3cnn(C4CCC5(CC4)OCCO5)c3n2)cc1 showed a % of inhibition [5] of 0%.
In the case of Cc1ccc(-c2ccc3c(ccc4sc5c(c43)NC[C@@H](C)NC5=O)n2)cn1, the % of inhibition [6] is reported as 22%.
CC[C@@H]1[C@H](F)C(=O)N[C@@H]1COc1nccc2cc(C(N)=O)c(OC)cc12 [ZIMLOVISERTIB] was tested, and the % of inhibition [7] was 10.2%.
Cc1cc(CN)cc(C)c1-c1ncn(C)c1-c1cncn1C was tested, and the dTagg [8] was 0.3 K.
C=CC(=O)Nc1cccc(C(=O)Nc2ccc(Nc3cc(-c4[nH]c(SC)nc4C)ccn3)cc2)c1 gave a % of control ([9]; at 1 µM) of 92% and a % of control ([9]; at 5 µM) of 86%.
CCC(=O)N1CCN(c2ccc(-n3c(=O)ccc4cnc5ccc(-c6cnc7ccccc7c6)cc5c43)cc2C(F)(F)F)CC1 gave a % of control [10] of 100% and a % of control [11] of 100%.
Cc1cnc(Nc2ccc(F)cc2Cl)nc1-c1c[nH]c(C(=O)N[C@H](CO)c2cccc(Cl)c2)c1 gave a % of inhibition [12] of 8%.
